Measurements: patent US20230167073A1 (Teijin Pharma Limited, priority 2020, published 2023)

What follows are compounds tested against T1, Human TRPC6 (Homo sapiens, UniProt Q9Y210) (assay: Evaluation of TRPC6 channel inhibitory activity (1), FLIPR Calcium 5 Assay Kit, OAG stimulation (Compound Nos. 1-1293)). Conditions: Human TRPC6 stably-expressing cells, OAG 30 μM, FLIPR Calcium 5 Assay Kit; read-out: Inhibitory activity (pIC50 class) (converted).
T1 construct: expressed in transfected cells
T1 sequence (Q9Y210 1-931): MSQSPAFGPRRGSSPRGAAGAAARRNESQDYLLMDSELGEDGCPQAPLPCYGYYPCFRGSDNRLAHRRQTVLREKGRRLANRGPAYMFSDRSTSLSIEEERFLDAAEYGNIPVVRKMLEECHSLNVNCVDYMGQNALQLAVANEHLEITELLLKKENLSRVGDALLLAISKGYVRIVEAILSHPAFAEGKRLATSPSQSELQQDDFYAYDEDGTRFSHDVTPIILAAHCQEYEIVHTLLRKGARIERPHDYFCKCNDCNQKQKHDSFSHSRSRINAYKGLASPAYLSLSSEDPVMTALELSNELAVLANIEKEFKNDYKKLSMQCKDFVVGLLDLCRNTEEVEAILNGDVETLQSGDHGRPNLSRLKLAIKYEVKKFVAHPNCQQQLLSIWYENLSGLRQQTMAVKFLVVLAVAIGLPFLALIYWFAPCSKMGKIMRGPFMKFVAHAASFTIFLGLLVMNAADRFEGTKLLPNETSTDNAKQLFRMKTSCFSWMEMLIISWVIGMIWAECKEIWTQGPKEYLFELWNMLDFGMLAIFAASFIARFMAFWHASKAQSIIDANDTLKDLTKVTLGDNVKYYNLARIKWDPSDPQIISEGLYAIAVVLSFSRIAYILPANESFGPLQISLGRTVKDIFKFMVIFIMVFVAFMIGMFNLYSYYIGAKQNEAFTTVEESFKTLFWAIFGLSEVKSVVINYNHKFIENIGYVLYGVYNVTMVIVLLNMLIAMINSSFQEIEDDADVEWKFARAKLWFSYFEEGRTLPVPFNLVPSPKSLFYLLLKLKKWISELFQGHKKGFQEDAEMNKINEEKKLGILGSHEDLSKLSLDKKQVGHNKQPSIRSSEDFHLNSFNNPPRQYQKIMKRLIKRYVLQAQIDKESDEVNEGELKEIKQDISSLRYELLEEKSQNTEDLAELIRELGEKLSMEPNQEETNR
Assay type: cell-based
How it was run: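 The FLIPR signal is maximum fluorescence after 30 μM OAG minus minimum before compound, measured in a human TRPC6 stable line loaded with Calcium 5 dye. Compounds were preincubated 20 min. pIC50 came from four-parameter logistic fitting of inhibition rates and is given as symbol ranges.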

IC50 [nM] | SMILES
10 to 1000 | Cn1nc(C2CC2)cc1Oc1cc(C#N)ccc1-c1cccn2c(CCN)nnc12 [compound 570, 4-[3-(2-aminoethyl)-[1,2,4]triazolo[4,3-a]pyridin-8-yl]-3-(5-cyclopropyl-2-methylpyrazol-3-yl)oxybenzonitrile]
> 1000 | Cn1nc(C2CC2)cc1Oc1cc(C#N)ccc1-c1cccn2c(C3CNC3)nnc12 [compound 571, 4-[3-(azetidin-3-yl)-[1,2,4]triazolo[4,3-a]pyridin-8-yl]-3-(5-cyclopropyl-2-methylpyrazol-3-yl)oxybenzonitrile]
10 to 1000 | Cc1cc(Oc2cc(C#N)ccc2-c2ncc(CN)cn2)cc(-c2ccccn2)n1 [compound 572, 4-[5-(aminomethyl)pyrimidin-2-yl]-3-(2-methyl-6-pyridin-2-ylpyridin-4-yl)oxybenzonitrile]
10 to 1000 | Cn1nc(C2CC2)cc1Oc1cc(C#N)ccc1-c1cccn(CCN)c1=O [compound 573, 4-[1-(2-aminoethyl)-2-oxopyridin-3-yl]-3-(5-cyclopropyl-2-methylpyrazol-3-yl)oxybenzonitrile]
10 to 1000 | Cn1nc(-c2nccs2)cc1Oc1cc(C#N)ccc1-c1ncc([C@H](O)CN)cn1 [compound 574, 4-[5-[(1S)-2-amino-1-hydroxyethyl]pyrimidin-2-yl]-3-[2-methyl-5-(1,3-thiazol-2-yl)pyrazol-3-yl]oxybenzonitrile]
< 10 | CC(C)Nc1cc(Oc2cc(C#N)ccc2-c2ccc(CCN)cn2)n(C)n1 [compound 575, 4-[5-(2-aminoethyl)pyridin-2-yl]-3-[2-methyl-5-(propan-2-ylamino)pyrazol-3-yl]oxybenzonitrile]
> 1000 | Cn1nc(N)cc1Oc1cc(C#N)ccc1-c1ccc([C@H](O)CN)cn1 [compound 576, 4-[5-[(1S)-2-amino-1-hydroxyethyl]pyridin-2-yl]-3-(5-amino-2-methylpyrazol-3-yl)oxybenzonitrile]
10 to 1000 | Cn1nc(N)cc1Oc1cc(C#N)ccc1-c1ccc(CCN)cn1 [compound 577, 4-[5-(2-aminoethyl)pyridin-2-yl]-3-(5-amino-2-methylpyrazol-3-yl)oxybenzonitrile]
10 to 1000 | Cc1cc(Oc2cc(C#N)ccc2-c2ccc(CCCN)cc2)cc(N2CCOCC2)n1 [compound 578, 4-[4-(3-aminopropyl)phenyl]-3-(2-methyl-6-morpholin-4-ylpyridin-4-yl)oxybenzonitrile]
10 to 1000 | Cn1nc(-c2ccccc2)cc1Oc1cc(C#N)ccc1-c1ccc(CCCN)cc1 [compound 579, 4-[4-(3-aminopropyl)phenyl]-3-(2-methyl-5-phenylpyrazol-3-yl)oxybenzonitrile]
10 to 1000 | Cc1cc(Oc2cc(C#N)ccc2-c2ccc([C@H](O)CN)cn2)cc(C2CCOCC2)n1 [compound 580, 4-[5-[(1S)-2-amino-1-hydroxyethyl]pyridin-2-yl]-3-[2-methyl-6-(oxan-4-yl)pyridin-4-yl]oxybenzonitrile]
> 1000 | Cn1nc(C2CC2)cc1Oc1cc(C#N)ccc1-c1nnc(CN)s1 [compound 582, 4-[5-(aminomethyl)-1,3,4-thiadiazol-2-yl]-3-(5-cyclopropyl-2-methylpyrazol-3-yl)oxybenzonitrile]
> 1000 | Cn1nc(-c2ccccc2)cc1Oc1cc(C#N)ccc1-c1nnc(CN)s1 [compound 583, 4-[5-(aminomethyl)-1,3,4-thiadiazol-2-yl]-3-(2-methyl-5-phenylpyrazol-3-yl)oxybenzonitrile]
> 1000 | Cn1nc(C2CC2)cc1Oc1cc(C#N)ccc1-c1ncc(CN)o1 [compound 584, 4-[5-(aminomethyl)-1,3-oxazol-2-yl]-3-(5-cyclopropyl-2-methylpyrazol-3-yl)oxybenzonitrile]
> 1000 | Cn1nc(C2CC2)cc1Oc1cc(C#N)ccc1-c1cc(OCCCN)ccn1 [compound 585, 4-[4-(3-aminopropoxy)pyridin-2-yl]-3-(5-cyclopropyl-2-methylpyrazol-3-yl)oxybenzonitrile]
> 1000 | Cn1nc(C2CC2)cc1Oc1cc(C#N)ccc1-c1cc(NCCCO)ccn1 [compound 586, 3-(5-cyclopropyl-2-methylpyrazol-3-yl)oxy-4-[4-(3-hydroxypropylamino)pyridin-2-yl]benzonitrile]

IC50 [nM] | SMILES
< 10 | Cn1nc(-c2ccccn2)cc1Oc1cc(C#N)ccc1-c1cc(CCN)ccn1 [compound 587, 4-[4-(2-aminoethyl)pyridin-2-yl]-3-(2-methyl-5-pyridin-2-ylpyrazol-3-yl)oxybenzonitrile]
10 to 1000 | Cn1nc(-c2ncco2)cc1Oc1cc(C#N)ccc1-c1ccc([C@H](O)CN)cn1 [compound 588, 4-[5-[(1S)-2-amino-1-hydroxyethyl]pyridin-2-yl]-3-[2-methyl-5-(1,3-oxazol-2-yl)pyrazol-3-yl]oxybenzonitrile]
10 to 1000 | Cn1nc(-c2ccccn2)cc1Oc1cc(C#N)ccc1-c1ccc(CN)n2cnnc12 [compound 589, 4-[5-(aminomethyl)-[1,2,4]triazolo[4,3-a]pyridin-8-yl]-3-(2-methyl-5-pyridin-2-ylpyrazol-3-yl)oxybenzonitrile]
> 1000 | Cc1cc(Oc2cc(C#N)ccc2-c2ccc(CN)n3cnnc23)cc(N2CCOCC2)n1 [compound 590, 4-[5-(aminomethyl)-[1,2,4]triazolo[4,3-a]pyridin-8-yl]-3-(2-methyl-6-morpholin-4-ylpyridin-4-yl)oxybenzonitrile]
> 1000 | Cc1cc(Oc2cc(C#N)ccc2-c2ccc([C@H](O)CN)cn2)cc(OC2COC2)n1 [compound 591, 4-[5-[(1S)-2-amino-1-hydroxyethyl]pyridin-2-yl]-3-[2-methyl-6-(oxetan-3-yloxy)pyridin-4-yl]oxybenzonitrile]
< 10 | Cn1nc(-c2nccs2)cc1Oc1cc(C#N)ccc1-c1ncc(CN)cn1 [compound 592, 4-[5-(aminomethyl)pyrimidin-2-yl]-3-[2-methyl-5-(1,3-thiazol-2-yl)pyrazol-3-yl]oxybenzonitrile]
> 1000 | Cc1cc(Oc2cc(C#N)ccc2-c2nnc(CN)s2)cc(N2CCOCC2)n1 [compound 593, 4-[5-(aminomethyl)-1,3,4-thiazol-2-yl]-3-(2-methyl-6-morpholin-4-ylpyridin-4-yl)oxybenzonitrile]
> 1000 | Cn1nc(C2CC2)cc1Oc1cc(C#N)ccc1-c1cccc2c(N)noc12 [compound 594, 4-(3-amino-1,2-benzoxazol-7-yl)-3-(5-cyclopropyl-2-methylpyrazol-3-yl)oxybenzonitrile]
10 to 1000 | Cc1cc(Oc2cc(C#N)ccc2-c2ncc(CCN)cn2)cc(-c2nccs2)n1 [compound 595, 4-[5-(2-aminoethyl)pyrimidin-2-yl]-3-[2-methyl-6-(1,3-thiazol-2-yl)pyridin-4-yl]oxybenzonitrile]
10 to 1000 | Cc1cc(Oc2cc(C#N)ccc2-c2ncc(CCN)cn2)cc(-c2ncco2)n1 [compound 596, 4-[5-(2-aminoethyl)pyrimidin-2-yl]-3-[2-methyl-6-(1,3-oxazol-2-yl)pyridin-4-yl]oxybenzonitrile]
10 to 1000 | Cc1cc(Oc2cc(C#N)ccc2-c2ncc(CCN)cn2)cc(-c2cnccn2)n1 [compound 597, 4-[5-(2-aminoethyl)pyrimidin-2-yl]-3-(2-methyl-6-pyrazin-2-ylpyridin-4-yl)oxybenzonitrile]
10 to 1000 | Cc1nc(Oc2cc(C#N)ccc2-c2ncc(CCN)cn2)cc(-c2nccs2)n1 [compound 598, 4-[5-(2-aminoethyl)pyrimidin-2-yl]-3-[2-methyl-6-(1,3-thiazol-2-yl)pyrimidin-4-yl]oxybenzonitrile]
< 10 | Cc1nc(Oc2cc(C#N)ccc2-c2ncc(CCN)cn2)cc(-c2ccccn2)n1 [compound 599, 4-[5-(2-aminoethyl)pyrimidin-2-yl]-3-(2-methyl-6-pyridin-2-ylpyrimidin-4-yl)oxybenzonitrile]
10 to 1000 | Cc1cc(Oc2cc(C#N)ccc2-c2ncc([C@H](O)CN)cn2)cc(-c2nc(C)cs2)n1 [compound 600, 4-[5-[(1S)-2-amino-1-hydroxyethyl]pyrimidin-2-yl]-3-[2-methyl-6-(4-methyl-1,3-thiazol-2-yl)pyridin-4-yl]oxybenzonitrile]
10 to 1000 | Cc1cc(Oc2cc(C#N)ccc2-c2ncc([C@H](O)CN)cn2)cc(-c2ncc(C)s2)n1 [compound 601, 4-[5-[(1S)-2-amino-1-hydroxyethyl]pyrimidin-2-yl]-3-[2-methyl-6-(5-methyl-1,3-thiazol-2-yl)pyridin-4-yl]oxybenzonitrile]
